US10660789B2, “1,4-dihydropyridine derivatives with HSP modulating activity” (Richter Gedeon NYRT., priority 2011, dated 2020)
Where a name gives a salt, the structure may show the parent alone. Read-outs that look alike come from different tables or passages of the source. Marks after values point to notes of the source that are not given here. Values belong to the compound of their own block, whether it stands above or below them.

What was measured:
[1] = test system: other Hsps; assay: Other in vitro HSP modulating effects (Table 3); format: cell-based, mouse and human; set-up: key: +: co-inducing activity; −: silencing activity; 0: with the experimental methods applied no other HSP modulating effects could be identified
Procedure: (§1) The Hsp co-inducing effect of the compounds on stress response was tested on B16 mouse melanoma and SHSY5Y human neuroblastoma cell lines stably transfected with Hsp promoter probing plasmids. This kind of promoter probing, using the promoter region of a given gene conjugated with fluorescent protein is used as a best and fastest test system for finding drugs which modulate the activity of the gene followed by the given promoter (Wyshocka et al., Mol. Cel. Biochem. 215:153-156, 2000).
(§2) Reporter plasmids, containing the Hsp70 and/or Hsp25 promoter conjugated to either YFP or GFP (yellow or green fluorescent protein), were stably transfected into the cells and the expression of YFP or GFP was followed by flow cytometry. Cells were either kept at 37° C. or exposed to heat shock at 42° C. for 1 hour followed by a 16 hour recovery period at 37° C. in the presence or absence of different concentrations of the test compound. After recovery the expression of YFP or GFP which is in straight correlation with the promoter activity of Hsp70 or Hsp27 genes was followed by measuring the fluorescence intensity of the cells by flow cytometry. Fluorescence intensity is in straight correlation with the amount of fluorescent protein (GFP or YFP) produced under the control of hsp promoter. The mean fluorescence intensity of YFP or GFP produced is shown as “Hsp promoter activity”.
(§3) Cells were homogenously distributed on 6-well plates in 1×10^5 cells/well density. B16-pHsp25-GFP and B16-pHsp70-YFP melanoma cells were grown in RPMI-1640 medium supplemented with 10% Fetal bovine serum (FBS), penicillin (200 units/ml), streptomycin (200 μg/ml) and 2 mM L-Glutamine. For maintaining the SH-SY5Y-pHsp25-GFP and SH-SY5YpHsp70-YFP neuroblastoma cell lines Dulbecco's modified Eagle's medium (DMEM-F-12) containing 10% FBS, 2 mM L-Glutamine, penicillin (200 units/ml), streptomycin (200 μg/ml) and MEM non-essential amino acids were used. Before the treatments both cell lines were incubated at 37° C. in a saturated humidity atmosphere containing 95% air and 5% CO2. After 24 h incubation cells were pretreated with compounds of the invention in four different concentrations (usually in 3; 10; 20 and 50 μM) 30 min before the heat shock at 42° C. for 1 h and then incubated further at 37° C. for 16 h (recovery period). After this procedure cells were trypsinized and suspensed in 500 μl serum-free DMEM-F12 medium. The changes in cells' fluorescence were detected using BD FACSCalibur flow cytometer.
SY-SY5Y and B16 cells were extracted in NP-40 lysis buffer (PBS pH 7.4, 1% protease inhibitor coctail and 1% Triton X-100). The cell extracts were then constantly agitated at 4° C. for 2 h. The cell extracts were centrifuged at 12000×g for 30 min and supernatants were saved. After the protein concentration measurement 15 μg of total protein was separated by sodium dodecyl sulfate-polyacrylamide gel electrophoresis (SDS-PAGE) under reducing conditions according to the method of Laemmli. Proteins were blotted onto PVDF membrane. The blot was incubated overnight at 4° C. in the presence of mouse α-Hsp25, α-Hsp70, α-Hsp60 és α-Hsp90 monoclonal antibodies diluted in PBS. Then, the membrane was washed three times in PBS-0.05% Tween and incubated for 1 h in peroxidase-conjugated anti-mouse IgG antibody diluted 1:50000 in PBS containing 3% non-fat dry milk. The immune complexes were detected with chemo-luminescent substrate of peroxidase according to the supplier's instructions. Images taken from the membranes were analyzed using AlphaEase FC software.

[2] = test system: B16 melanoma cells; assay: Experimental metastatic melanoma, B16 cells i.v. in C57Bl/6 mice; format: in vivo, mouse; conditions: for drug-related mortality and weight loss: 10 mg/kg i.p. daily, tumor bearing mice; for In vivo efficacy: model in which efficacy was shown
Procedure: The anticancer activity was tested in C57Bl/6 mouse (B6), the best known syngeneic mouse model of experimental metastatic melanoma. C57Bl/6 mice injected with B16 melanoma cells subcutaneously or intramuscularly develop primary tumors that, in a part of the recipients, give rise to lung metastases. When the B16 cells are injected intravenously via the tail vein, a fraction of the tumor cells homes directly in the lung, where they develop into multiple independent tumor nodules termed “experimental metastases”. Although lung tumors are the most prominent, brain, liver and kidney tumors are also detectable in intravenously injected mice. Since the behavior of the tumor-bearing mice is quite uniform, the model is suitable for simultaneous testing of high numbers of drug candidates in a limited number of experimental animals.
The in vivo tumor experiments were performed with cultured B16 cells that were previously re-isolated from lung metastatic nodules, therefore their metastatic potential was kept optimal. The tumor cells liberated from the tumor mass by trypsin digestion were expanded in cell culture and stored in aliquots in liquid nitrogen, while the number of in vitro passages was kept to a minimum. In the experiments, B6 mice were injected with 100 000 B16 melanoma cells i.v. via the tail vein. The drug candidates were dissolved in physiological saline then they were administered i.p. in a volume of 100 ul. Daily treatment of tumor bearing mice started at day 7 after the tumor injection. The body weight of the mice was measured at day 1, 7, 14 and 21. The survival of the tumor bearing mice was recorded daily. All experiments were performed in accordance with national and European animal welfare guidelines. To prevent unnecessary suffering, moribund mice were euthanized.

[3] = test system: B16F10 melanoma cells; assay: Vincristine cytotoxicity in combination, B16F10 melanoma cells; format: cell-based; conditions: Mus musculus, read-out: IC50 of VR (50% inhibition of cell growth)
Procedure: Cells were homogenously distributed on 96-well plates in 5×10^3 cells/well density then incubated for 24 h at 37° C. On the next day cells were treated with compounds of the invention in 100 nM-200 μM concentration range for 24 h. The viability of the cells were measured using alamarBlue® assay kit according to the supplier's instructions.
The rationale for combination chemotherapy is to use drugs that work by different mechanisms of action, thereby decreasing the likelihood that resistant cancer cells will develop.

[4] = test system: Hsp70 promoter; assay: Hsp70 promoter-YFP reporter in B16 F-10 melanoma cells, flow cytometry; format: cell-based, mouse; conditions: stress induced, FIG. 4
Procedure: as §1
Reporter plasmids, containing the Hsp70 and/or Hsp25 promoter conjugated to either YFP or GFP (yellow or green fluorescent protein), were stably transfected into the cells and the expression of YFP or GFP was followed by flow cytometry. […] After recovery the expression of YFP or GFP which is in straight correlation with the promoter activity of Hsp70 or Hsp27 genes was followed by measuring the fluorescence intensity of the cells by flow cytometry. Fluorescence intensity is in straight correlation with the amount of fluorescent protein (GFP or YFP) produced under the control of hsp promoter. The mean fluorescence intensity of YFP or GFP produced is shown as “Hsp promoter activity”.
Some of the compounds are Hsp70 selective stress protein response silencers as shown on FIG. 4. […] The fluorescence intensity of YFP produced as a result of Hsp70 promoter activity was measured by flow cytometry. […]

[5] = test system: Ca^2+ channel; assay: Hsp modulating versus Ca2+ antagonist effect
[6] = test system: Hsp25 promoter; assay: Hsp25 promoter-GFP reporter in SHSY5Y cells, flow cytometry; format: cell-based, human
Procedure: as §1, §2
The fluorescence intensity of GFP and YFP […].
Selectivity of the Hsp25 co-inducing activity of compound of Ex. 11 is shown on FIG. 3. […] The fluorescence intensity of GFP produced as a result of Hsp25 promoter activity was measured by flow cytometry.
(§4) Cells were homogenously distributed on 6-well plates in 1×10^5 cells/well density. B16-pHsp25-GFP and B16-pHsp70-YFP melanoma cells were grown in RPMI-1640 medium supplemented with 10% Fetal bovine serum (FBS), penicillin (200 units/ml), streptomycin (200 μg/ml) and 2 mM L-Glutamine. […] The changes in cells' fluorescence were detected using BD FACSCalibur flow cytometer.

[7] = test system: Hsp25; assay: Other in vitro effects, Hsp25 (Table 3); format: cell-based, mouse and human; set-up: key: +: co-inducing activity; −: silencing activity; 0: with the experimental methods applied no other HSP modulating effects could be identified
Procedure: as §1, §2, §4
SY-SY5Y and B16 cells were extracted in NP-40 lysis buffer (PBS pH 7.4, 1% protease inhibitor coctail and 1% Triton X-100). […] The immune complexes were detected with chemo-luminescent substrate of peroxidase according to the supplier's instructions. Images taken from the membranes were analyzed using AlphaEase FC software.

[8] = test system: Hsp70 promoter; assay: Hsp promoter probing, Hsp70 promoter-YFP reporter, flow cytometry (Table 3); format: cell-based, mouse and human; set-up: key: +: co-inducing activity; −: silencing activity; 0: with the experimental methods applied no other HSP modulating effects could be identified; conditions: heat shock 42° C. 1 h, 16 h recovery; B16 or SHSY5Y reporter cells, cell line per value not stated
Procedure: as §1
The Hsp encoding genes are transactivated through the binding of HSF to the heat shock element found on the DNA upstream of the Hsp genes, in the so called promoter region. In the absence of heat stress, the heat shock factors are present as monomers. Upon heat stress, however, the heat shock factors form trimers, which are the active components, able to bind to heat shock elements. Once HSF is bound to the heat shock element in the promoter of Hsp genes, the gene following the promoter region is transcriptionally active.
as §2, §3

[9] = test system: Zucker obese rat; assay: Insulin resistance, Zucker obese rat; format: in vivo
Procedure: Insulin sensitizing activity of the compounds was tested in Zucker obese rat at three doses (10, 30 and 100 mg/kg), 6 weeks old Zucker obese (ZO) rats were adapted for a week before the administration of the compound. The animals were treated once a day for 5 days with compound Ex. 1 with 10, 30 and 100 mg/kg dose by stomach probe. The control group was treated with Klucel solution. The animals were kept in metabolic cage during the experiment, their food and drink consumption, the amount of urine and faeces was determined daily.
At the end of the treatment period the animals were fasted for 16 hours, the fasting plasma glucose level was determined. At the end the animals were sacrificed and different organs were taken for Hsp measurement.

[10] = Acute toxicity (LD50); conditions: in vivo

SMILES: COC(=O)C1=C(C)N(C)C(CCN(C)C)=C(C(=O)OC)C1c1ccc(C(F)(F)F)cc1.Cl (stereo not shown) [Example 14, Dimethyl 2-(2-dimethylaminoethyl)-1,6-dimethyl-4-(4-trifluoromethylphenyl)-1,4-dihydropyridine-3,5-dicarboxylate hydrochloride]
Other in vitro effects [1]: 0 | Increase in life span ([2]; 10 mg/kg i.p. daily from day 7 to day 29): 18% | Mean survival time ([2]; 10 mg/kg i.p. daily from day 7 to day 29, control 25.25+/−4.13 days): 29.91 ± 3.78 days | drug-related mortality and weight loss [2]: did not produce drug-related mortality or weight loss | In vivo efficacy [2]: Cancer mono-

SMILES: CC[C@]1(O)C[C@H]2CN(CCc3c([nH]c4ccccc34)[C@@](C(=O)OC)(c3cc4c(cc3OC)N(C=O)[C@H]3[C@@](O)(C(=O)OC)[C@H](OC(C)=O)[C@]5(CC)C=CCN6CC[C@]43[C@@H]65)C2)C1 [VR, vincristine, reference compound]
IC50 ([3]; B16-F10, VR treatment alone): 1.3 nM

melting point: 136 to 138 °C
SMILES: CCC1=C(C(=O)OC)C(c2ccc(C(F)(F)F)cc2)C(C(=O)OC)=C(CC)N1C [Example 27, Dimethyl 2,6-diethyl-1-methyl-4-(triflouromethyl-phenyl)-1,4-dihydropyridine-3,5-dicarboxylate]
Hsp70 silencer activity [4]: strong concentration dependent silencer for stress induced Hsp70 gene activity | Ca antagonist effect [5]: no Ca antagonist effect | IC50 ([3]; B16-F10, VR with Ex 27 at 10 μM): 0.4 nM

melting point: 135 to 137 °C
SMILES: CCN1C(C)=C(C(=O)OC)C(c2ccc(C(F)(F)F)cc2)C(C(=O)OC)=C1C [Example 11, Dimethyl 1-ethyl-2,6-dimethyl-4-(4-trifluoromethylphenyl)-1,4-dihydropyridine-3,5-dicarboxylate]
activity of the promoter of the Hsp25 gene at 37° C. ([6]; 37° C.): does not affect the activity of the promoter of the Hsp25 gene at 37 °C | Hsp25 co-inducing activity ([6]; heat stress, FIG. 3): strong, concentration dependent co-inducer for Hsp25 stress protein | Other in vitro effects: Hsp25 [7]: Hsp25+

index of EC50 HSP-modulating/Ca^2+ antagonist effect [5]: about 1
SMILES: COC(=O)C1=C(C#N)NC(C)=C(C(=O)OC(C)C)C1c1cccc([N+](=O)[O-])c1 (stereo not shown) [Nilvadipine, reference compound]

melting point: 159 to 160 °C
SMILES: COC(=O)C1=C(C)N(C)C(C)=C(C(=O)OC)C1c1ccc(C(F)(F)F)cc1 [Example 1, Dimethyl 1,2,6-trimethyl-4-(4-trifluoromethylphenyl)-1,4-dihydropyridine-3,5-dicarboxylate]
Other in vitro effects [1]: 0**** | Hsp70 modulation [8]: +* | fasting plasma glucose level ([9]; 10, 30 and 100 mg/kg once a day for 5 days by stomach probe, 16 h fasted, FIG. 5A): improved fasting plasma glucose level | Hsp70 amount in brown adipose tissue ([9]; 10, 30 and 100 mg/kg once a day for 5 days, Western blot, FIG. 5B): elevated Hsp70 amount in brown adipose tissue | In vivo efficacy ([9]; model in which efficacy was shown): Insulin resistance

SMILES: COC(=O)C1=C(CCN2CCCCC2)N(C)C(CCN2CCCCC2)=C(C(=O)OC)C1c1ccc(C(F)(F)F)cc1 [Example 17, Dimethyl 1-methyl-2,6-bis-(2-piperidin-1-yl-ethyl)-4-(4-trifluoromethylphenyl)-1,4-dihydropyridine-3,5-dicarboxylate dihydrochloride]
Other in vitro effects: Hsp25 [7]: Hsp25 0 | Increase in life span ([2]; 1 mg/kg i.p. daily from day 7 to day 18): 23.1% | Mean survival time ([2]; 1 mg/kg i.p. daily from day 7 to day 18, FIG. 8): 31.0 ± 3.7 days | Increase in life span ([2]; 3 mg/kg i.p. daily from day 7 to day 18): 40.8% | Mean survival time ([2]; 3 mg/kg i.p. daily from day 7 to day 18, FIG. 8): 35.55 ± 3.80 days | Increase in life span ([2]; 10 mg/kg i.p. daily from day 7 to day 18): 53.7% | Mean survival time ([2]; 10 mg/kg i.p. daily from day 7 to day 18, FIG. 8): 38.10 ± 10.45 days | drug-related mortality and weight loss [2]: did not produce drug-related mortality and statistically significant drug related weight loss | In vivo efficacy [2]: Cancer mono- | LD50 [10]: 150 mg/kg

melting point: 123 to 124 °C
SMILES: CCOC(=O)C1=CN(C2CC2)C=C(C(=O)OCC)C1c1ccc(C(F)(F)F)cc1 [Example 33, Diethyl 1-cyclopropyl-4-(4-trifluoromethylphenyl)-1,4-dihydro-pyridine-3,5-dicarboxylate]
Other in vitro effects [1]: 0 | Hsp70 modulation [8]: +
